Values after ≈ are worked out from the molar mass of the structure shown. Read-outs that look alike come from different tables or passages of the source.
What was measured:
[1] = system: Pseudomonas aeruginosa CCM 1961; experiment: Antibacterial microdilution broth, PA; assay type: cell-based; conditions: Pseudomonas aeruginosa, read-out: MIC PA
[2] = system: Mycobacterium tuberculosis H37Rv CNCTC My 331/88 (ATCC 27294); experiment: Antimycobacterial microdilution MABA, M. tuberculosis; assay type: cell-based; conditions: for Mtb H37Rv ATCC 27294 MIC: Middlebrook 7H9 with OADC growth supplement, pH = 6.6, MABA; for MIC: Mycobacterium tuberculosis, read-out: Mtb H37Rv ATCC 27294 MIC, Middlebrook 7H9 with OADC growth supplement, pH = 6.6, MABA
Trichosporon asahii 1188 = experiment: Antifungal microdilution broth, TA; assay type: cell-based; conditions: read-out: MIC TA
Candida tropicalis 156 = experiment: Antifungal microdilution broth, CT; assay type: cell-based; conditions: read-out: MIC CT
[3] = system: Lichtheimia corymbifera 272; experiment: Antifungal microdilution broth, LC; assay type: cell-based; conditions: read-out: MIC LC
[4] = system: Staphylococcus aureus H 5996/08 methicillin resistant; experiment: microbe, parasite or virus in culture; assay type: cell-based; conditions: for MIC: Staphylococcus aureus, MRSA, read-out: MIC MRSA
[5] = system: Staphylococcus aureus CCM 4516/08; experiment: Antibacterial microdilution broth, SA; assay type: cell-based
[6] = system: Staphylococcus epidermidis H 6966/08; experiment: Antibacterial microdilution broth, SE; assay type: cell-based; conditions: read-out: MIC SE
[7] = system: Escherichia coli CCM 4517; experiment: Antibacterial microdilution broth, EC; assay type: cell-based; conditions: Escherichia coli, read-out: MIC EC
[8] = system: Mycobacterium smegmatis CCM 4622 (ATCC 607); experiment: Antimycobacterial microdilution, M. smegmatis; assay type: cell-based; conditions: Mycolicibacterium smegmatis, read-out: M. smeg. ATCC 607 MIC
[9] = system: Aspergillus fumigatus 231; experiment: Antifungal microdilution broth, AF; assay type: cell-based; conditions: read-out: MIC AF
[10] = system: Candida albicans ATCC 44859; experiment: Antifungal microdilution broth, CA; assay type: cell-based; conditions: Candida albicans, read-out: MIC CA
[11] = system: M. avium ssp. avium CNCTC My 80/72 (ATCC 15769); experiment: Antimycobacterial microdilution MABA, M. avium; assay type: cell-based, Mycobacterium avium; conditions: Mycobacterium avium, ATCC15769, pH 6.6, read-out: M. avium ATCC 15769 MIC
[12] = system: Trichophyton interdigitale 445; experiment: Antifungal microdilution broth, TI; assay type: cell-based; conditions: read-out: MIC TI
[13] = system: M. kansasii CNCTC My 235/80 (ATCC 12478); experiment: Antimycobacterial microdilution MABA, M. kansasii; assay type: cell-based, Mycobacterium kansasii; conditions: Mycobacterium kansasii, ATCC12478, pH 6.6, read-out: M. kans. ATCC 12478 MIC, Middlebrook 7H9 with OADC, pH 6.6, MABA
Candida krusei E28 = experiment: Antifungal microdilution broth, CK; assay type: cell-based; conditions: Pichia kudriavzevii, read-out: MIC CK
Candida glabrata 20/I = experiment: Antifungal microdilution broth, CG; assay type: cell-based; conditions: Nakaseomyces glabratus, 20/I, read-out: MIC CG
[14] = system: Enterococcus sp. J 14365/08; experiment: Antibacterial microdilution broth, EF; assay type: cell-based; conditions: Enterococcus, read-out: MIC EF
[15] = Trichosporon asahii, 1188, 24 h
[16] = Trichosporon asahii, 1188, 48 h
[17] = Lichtheimia corymbifera, 272, 24 h
[18] = Lichtheimia corymbifera, 272, 48 h
[19] = Staphylococcus aureus, CCM4516, 24 h, read-out: MIC SA, 24 h
[20] = Staphylococcus aureus, CCM4516, 48 h, read-out: MIC SA, 48 h
[21] = Staphylococcus epidermidis, H6966/08, 24 h
[22] = Staphylococcus epidermidis, H6966/08, 48 h
[23] = Aspergillus fumigatus, 231, 24 h
[24] = Aspergillus fumigatus, 231, 48 h
[25] = Trichophyton interdigitale, 445, 72 h
[26] = Trichophyton interdigitale, 445, 120 h

SMILES | MIC ([1]; CCM1961, 72 h) [µM] | MIC ([1]; CCM1961, 120 h) [µM] | MIC [2] [µg/mL] | MIC (Trichosporon asahii 1188; [15]) [µM] | MIC (Trichosporon asahii 1188; [16]) [µM] | MIC (Candida tropicalis 156; Candida tropicalis, 156, 24 h) [µM] | MIC (Candida tropicalis 156; Candida tropicalis, 156, 48 h) [µM] | MIC [3, 17] [µM] | MIC [3, 18] [µM] | MIC ([4]; 24 h) [µM] | MIC ([4]; 48 h) [µM] | MIC [5, 19] [µM] | MIC [5, 20] [µM] | MIC [6, 21] [µM] | MIC [6, 22] [µM] | MIC ([7]; CCM4517, 24 h) [µM] | MIC ([7]; CCM4517, 48 h) [µM] | MIC [8] [µg/mL] | MIC [9, 23] [µM] | MIC [9, 24] [µM] | also measured
O=C(Nc1cnc(Cl)cn1)c1ccccc1Cl [Compound 2j] | > 500 | > 500 | > 100 | > 500 | > 500 | > 500 | > 500 | > 500 | > 500 | > 500 | > 500 | 62.5 (≈ 16.8 µg/mL) | 62.5 (≈ 16.8 µg/mL) | > 500 | > 500 | > 500 | > 500 | ≥ 500 | > 500 | > 500 | Mtb H37Rv ATCC 27294 MIC [2]: >100 µg/mL; MIC MRSA ([4]; 24 h): >500 µM; MIC MRSA ([4]; 48 h): >500 µM; MIC ([5]; 24 h, read-out: MIC SA): 62.50 µM (≈ 16.8 µg/mL); MIC ([5]; 48 h, read-out: MIC SA): 62.50 µM (≈ 16.8 µg/mL); MIC ([6]; 24 h): >500 µM; MIC ([6]; 48 h): >500 µM; MIC ([10]; ATCC44859, 24 h): > 500 µM; MIC ([10]; ATCC44859, 48 h): > 500 µM; MIC [11]: > 100 µg/mL; MIC [12, 25]: > 500 µM; MIC [12, 26]: > 500 µM; MIC [13]: > 100 µg/mL; MIC (Candida krusei E28; E28, 24 h): > 500 µM; MIC (Candida krusei E28; E28, 48 h): > 500 µM; MIC (Candida glabrata 20/I; 24 h): > 500 µM; MIC (Candida glabrata 20/I; 48 h): > 500 µM; MIC ([14]; SP.J14365/08, 24 h): > 500 µM; MIC ([14]; SP.J14365/08, 48 h): > 500 µM
O=C(Nc1cncc(Cl)n1)c1ccccc1Cl [Compound 3j] | > 500 | > 500 | > 100 | > 500 | > 500 | > 500 | > 500 | > 500 | > 500 | > 500 | > 500 | > 500 | > 500 | > 500 | > 500 | > 500 | > 500 | ≥ 500 | > 500 | > 500 | Mtb H37Rv ATCC 27294 MIC [2]: >100 µg/mL; MIC ([10]; ATCC44859, 24 h): > 500 µM; MIC ([10]; ATCC44859, 48 h): > 500 µM; MIC [11]: > 100 µg/mL; MIC [12, 25]: > 500 µM; MIC [12, 26]: > 500 µM; MIC [13]: > 100 µg/mL; MIC (Candida krusei E28; E28, 24 h): > 500 µM; MIC (Candida krusei E28; E28, 48 h): > 500 µM; MIC (Candida glabrata 20/I; 24 h): > 500 µM; MIC (Candida glabrata 20/I; 48 h): > 500 µM; MIC ([14]; SP.J14365/08, 24 h): > 500 µM; MIC ([14]; SP.J14365/08, 48 h): > 500 µM
CCc1ccc(C(=O)Nc2cnccn2)cc1 [Compound 1i] | > 500 | > 500 | > 100 | > 500 | > 500 | > 500 | > 500 | > 500 | > 500 | > 500 | > 500 | > 500 | > 500 | 500 (≈ 114 µg/mL) | 500 (≈ 114 µg/mL) | > 500 | > 500 | ≥ 500 | > 500 | > 500 | MIC ([10]; ATCC44859, 24 h): > 500 µM; MIC ([10]; ATCC44859, 48 h): > 500 µM; MIC [11]: > 100 µg/mL; MIC [12, 25]: > 500 µM; MIC [12, 26]: > 500 µM; MIC [13]: > 100 µg/mL; MIC (Candida krusei E28; E28, 24 h): > 500 µM; MIC (Candida krusei E28; E28, 48 h): > 500 µM; MIC (Candida glabrata 20/I; 24 h): > 500 µM; MIC (Candida glabrata 20/I; 48 h): > 500 µM; MIC ([14]; SP.J14365/08, 24 h): 500 µM (≈ 114 µg/mL); MIC ([14]; SP.J14365/08, 48 h): 500 µM (≈ 114 µg/mL)
COc1cccc(C(=O)Nc2cnc(Cl)cn2)c1 [Compound 2f] | > 500 | > 500 | > 100 | > 500 | > 500 | > 500 | > 500 | > 500 | > 500 | > 500 | > 500 | 31.2 (≈ 8.24 µg/mL) | 31.2 (≈ 8.24 µg/mL) | > 500 | > 500 | > 500 | > 500 | ≥ 500 | > 500 | > 500 | MIC MRSA ([4]; 24 h): >500 µM; MIC MRSA ([4]; 48 h): >500 µM; MIC ([6]; 24 h): >500 µM; MIC ([6]; 48 h): >500 µM; MIC ([10]; ATCC44859, 24 h): 125 µM (≈ 33 µg/mL); MIC ([10]; ATCC44859, 48 h): 500 µM (≈ 132 µg/mL); MIC [11]: > 100 µg/mL; MIC [12, 25]: > 500 µM; MIC [12, 26]: > 500 µM; MIC [13]: > 100 µg/mL; MIC (Candida krusei E28; E28, 24 h): > 500 µM; MIC (Candida krusei E28; E28, 48 h): > 500 µM; MIC (Candida glabrata 20/I; 24 h): > 500 µM; MIC (Candida glabrata 20/I; 48 h): > 500 µM; MIC ([14]; SP.J14365/08, 24 h): > 500 µM; MIC ([14]; SP.J14365/08, 48 h): > 500 µM
COc1cccc(C(=O)Nc2cnccn2)c1 [Compound 1f] | > 500 | > 500 | > 100 | > 500 | > 500 | > 500 | > 500 | > 500 | > 500 | > 500 | > 500 | > 500 | > 500 | > 500 | > 500 | > 500 | > 500 | ≥ 500 | > 500 | > 500 | Mtb H37Rv ATCC 27294 MIC [2]: >100 µg/mL; MIC ([10]; ATCC44859, 24 h): > 500 µM; MIC ([10]; ATCC44859, 48 h): > 500 µM; MIC [11]: > 100 µg/mL; MIC [12, 25]: > 500 µM; MIC [12, 26]: > 500 µM; MIC [13]: > 100 µg/mL; MIC (Candida krusei E28; E28, 24 h): > 500 µM; MIC (Candida krusei E28; E28, 48 h): > 500 µM; MIC (Candida glabrata 20/I; 24 h): > 500 µM; MIC (Candida glabrata 20/I; 48 h): > 500 µM; MIC ([14]; SP.J14365/08, 24 h): > 500 µM; MIC ([14]; SP.J14365/08, 48 h): > 500 µM
